Measurements: US10072026B2, “Crystalline form of 3-((1R,3s,5S)-3-((7-((5-methyl-1H-pyrazol-3-yl)amino)-1,6-naphthyridin-5-yl)amino)-8-azabicyclo[3.2.1]octan-8-yl)propanenitrile” (priority 2015, dated 2018)

What was measured:
JAK1 = JAK1 (Homo sapiens (Human), UniProt P23458); assay: LanthaScreen JAK biochemical assay (JAK1); details: for Ki: read-out: JAK 1 (pKi) (converted)
[1] = system: IL-13 induced STAT6 phosphorylation in BEAS-2B human lung epithelial cells; assay: AlphaScreen cellular JAK potency assay, BEAS-2B
JAK2 = JAK2 (Homo sapiens (Human), UniProt O60674); assay: LanthaScreen JAK biochemical assay (JAK2); details: for Ki: read-out: JAK 2 (pKi) (converted)
Sequence of JAK2 (O60674 whole entry): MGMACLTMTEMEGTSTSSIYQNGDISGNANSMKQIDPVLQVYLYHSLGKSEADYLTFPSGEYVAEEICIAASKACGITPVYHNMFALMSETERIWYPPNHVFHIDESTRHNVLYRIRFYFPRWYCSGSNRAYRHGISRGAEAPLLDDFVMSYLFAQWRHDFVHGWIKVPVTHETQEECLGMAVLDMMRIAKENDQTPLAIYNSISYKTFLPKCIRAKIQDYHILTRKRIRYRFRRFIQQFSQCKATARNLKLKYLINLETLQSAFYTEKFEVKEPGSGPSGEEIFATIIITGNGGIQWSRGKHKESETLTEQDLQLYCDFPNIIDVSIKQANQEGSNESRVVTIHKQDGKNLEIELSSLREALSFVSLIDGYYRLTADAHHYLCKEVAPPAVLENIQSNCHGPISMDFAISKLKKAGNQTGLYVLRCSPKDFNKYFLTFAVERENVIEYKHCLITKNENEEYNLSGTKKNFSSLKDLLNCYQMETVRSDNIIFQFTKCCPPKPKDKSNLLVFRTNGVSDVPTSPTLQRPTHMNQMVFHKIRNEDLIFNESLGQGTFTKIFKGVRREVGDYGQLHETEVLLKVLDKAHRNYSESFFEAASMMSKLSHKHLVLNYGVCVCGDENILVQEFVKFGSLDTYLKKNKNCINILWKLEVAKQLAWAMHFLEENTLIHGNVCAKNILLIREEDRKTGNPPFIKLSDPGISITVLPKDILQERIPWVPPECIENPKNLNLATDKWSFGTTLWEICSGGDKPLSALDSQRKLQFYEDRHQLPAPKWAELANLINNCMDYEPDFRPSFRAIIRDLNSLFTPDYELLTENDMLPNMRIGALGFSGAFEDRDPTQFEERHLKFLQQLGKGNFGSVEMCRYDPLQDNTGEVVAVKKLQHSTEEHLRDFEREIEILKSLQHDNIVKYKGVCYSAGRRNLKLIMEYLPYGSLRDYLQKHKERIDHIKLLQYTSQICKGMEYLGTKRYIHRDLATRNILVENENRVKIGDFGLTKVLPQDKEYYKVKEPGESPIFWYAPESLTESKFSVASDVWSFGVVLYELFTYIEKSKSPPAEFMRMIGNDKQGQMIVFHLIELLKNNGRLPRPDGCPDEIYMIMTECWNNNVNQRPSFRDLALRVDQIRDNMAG

[2] = system: IL-4 induced STAT6 phosphorylation in THP-1 human monocytic cells; assay: Cellular JAK potency assay, THP-1
[3] = Homo sapiens, BEAS-2B, read-out: BEAS2B pIC50 (converted)
[4] = Homo sapiens, THP-1, read-out: THP-1 IL4 pIC50 (converted)
[5] = IL-13 induced STAT6 phosphorylation, BEAS-2B cells
[6] = IL-4 induced STAT6 phosphorylation, THP-1 cells
[7] = BEAS-2B cells, IL-13 induced STAT6 phosphorylation
[8] = THP-1 cells, IL-4 induced STAT6 phosphorylation

Sequence of JAK1 (P23458 whole entry): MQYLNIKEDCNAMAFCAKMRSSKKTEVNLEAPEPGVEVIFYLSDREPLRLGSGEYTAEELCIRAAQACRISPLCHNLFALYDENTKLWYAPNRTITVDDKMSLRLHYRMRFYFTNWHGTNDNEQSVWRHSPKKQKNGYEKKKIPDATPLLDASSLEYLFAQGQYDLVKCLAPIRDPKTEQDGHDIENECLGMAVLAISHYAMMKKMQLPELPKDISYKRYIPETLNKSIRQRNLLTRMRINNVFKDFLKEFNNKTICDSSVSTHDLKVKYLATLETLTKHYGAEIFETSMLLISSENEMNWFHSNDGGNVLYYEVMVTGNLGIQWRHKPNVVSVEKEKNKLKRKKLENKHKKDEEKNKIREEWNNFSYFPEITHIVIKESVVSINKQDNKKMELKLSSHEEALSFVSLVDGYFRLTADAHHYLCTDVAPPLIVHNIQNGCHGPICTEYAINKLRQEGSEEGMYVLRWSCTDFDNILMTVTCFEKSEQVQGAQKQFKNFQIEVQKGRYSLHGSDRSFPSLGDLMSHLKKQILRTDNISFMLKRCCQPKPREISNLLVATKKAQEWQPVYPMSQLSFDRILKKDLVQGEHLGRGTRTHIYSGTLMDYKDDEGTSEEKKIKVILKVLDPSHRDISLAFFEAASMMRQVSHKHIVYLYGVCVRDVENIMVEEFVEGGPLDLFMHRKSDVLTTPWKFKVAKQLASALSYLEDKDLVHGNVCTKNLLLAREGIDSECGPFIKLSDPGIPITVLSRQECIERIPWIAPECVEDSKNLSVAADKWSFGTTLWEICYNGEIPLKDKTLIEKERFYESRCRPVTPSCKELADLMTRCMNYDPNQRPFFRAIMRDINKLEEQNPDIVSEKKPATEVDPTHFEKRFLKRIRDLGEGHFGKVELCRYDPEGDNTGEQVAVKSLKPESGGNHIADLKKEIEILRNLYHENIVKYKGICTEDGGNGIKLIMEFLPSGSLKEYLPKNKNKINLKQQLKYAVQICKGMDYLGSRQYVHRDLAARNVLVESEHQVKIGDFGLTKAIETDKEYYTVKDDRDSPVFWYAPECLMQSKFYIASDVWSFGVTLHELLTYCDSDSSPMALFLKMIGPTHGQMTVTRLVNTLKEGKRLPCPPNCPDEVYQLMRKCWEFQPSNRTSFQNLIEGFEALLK

| Compound | Ki (JAK1) [nM] | IC50 [1, 3] [nM] | Ki (JAK2) [nM] | IC50 [2, 4] [nM] | BEAS2B pIC50 [1, 5] | JAK 2 (pKi) (JAK2) | THP-1 IL4 pIC50 [2, 6] | JAK 1 (pKi) (JAK1) | BEAS2B pIC50 [1, 7] | THP-1 IL4 pIC50 [2, 8] |
| --- | --- | --- | --- | --- | --- | --- | --- | --- | --- | --- |
| Cc1cc(Nc2cc3ncccc3c(N[C@@H]3C[C@H]4CC[C@@H](C3)N4S(=O)(=O)C(C)C)n2)n[nH]1 [Example 4-2] | 0.1 to 1 | < 31.6 | 0.1 to 1 | < 31.6 | – | – | – | – | – | – |
| CCN1CC(S(=O)(=O)N2[C@@H]3CC[C@H]2C[C@H](Nc2nc(Nc4cc(C)[nH]n4)cc4ncccc24)C3)C1 [Example 4-10] | 0.1 to 1 | 31.6 to 200 | 0.1 to 1 | 31.6 to 200 | – | – | – | – | – | – |
| Cc1cc(Nc2cc3ncccc3c(N[C@@H]3C[C@H]4CC[C@@H](C3)N4S(=O)(=O)c3cncc(F)c3)n2)n[nH]1 [Example 4-15] | 0.1 to 1 | < 31.6 | 0.1 to 1 | < 31.6 | – | – | – | – | – | – |
| CCC1(S(=O)(=O)N2[C@@H]3CCC[C@H]2C[C@H](Nc2nc(Nc4cc(C)[nH]n4)cc4ncccc24)C3)CC1 [Example 4-20] | – | – | – | – | A (A represents a pEC50 value≥7.5 (EC50≤32 nM)) | A (A represents a pKi value≥10 (Ki≤0.1 nM)) | A (A represents a pEC50 value≥7.5 (EC50≤32 nM)) | – | – | – |
| Cc1cc(Nc2cc3ncccc3c(N[C@@H]3C[C@H]4CCC[C@@H](C3)N4S(=O)(=O)Cc3cccnc3)n2)n[nH]1 [Example 4-26] | – | – | – | – | B (B represents a pEC50 value between 6.7 and 7.5 (EC50 between 200 nM and 32 nM)) | B (B represents a pKi value between 9 and 10 (Ki between 1 nM and 0.1 nM)) | B (B represents a pEC50 value between 6.7 and 7.5 (EC50 between 200 nM and 32 nM)) | B (B represents a pKi value between 9 and 10 (Ki between 1 nM and 0.1 nM)) | – | – |
| COc1ccc2c(N[C@@H]3C[C@H]4CC[C@@H](C3)N4C(=O)C3(C(F)(F)F)CC3)nc(Nc3cc(C)[nH]n3)cc2n1 [Example 5-6] | 0.1 to 1 | < 31.6 | 0.1 to 1 | < 31.6 | – | – | – | – | – | – |
| COc1ccc2c(N[C@@H]3C[C@H]4CCC[C@@H](C3)N4CCC#N)nc(Nc3cc(C)[nH]n3)cc2n1 [Example 5-10] | – | – | – | – | A (A represents a pEC50 value≥7.5 (EC50≤32 nM)) | A (A represents a pKi value≥10 (Ki≤0.1 nM)) | A (A represents a pEC50 value≥7.5 (EC50≤32 nM)) | A (A represents a pKi value≥10 (Ki≤0.1 nM)) | – | – |
| Cc1cc(Nc2cc3nc(CO)ccc3c(N[C@@H]3C[C@H]4CC[C@@H](C3)N4CCCF)n2)n[nH]1 [Example 5-14] | – | – | – | – | B (B represents a pEC50 value between 6.7 and 7.5 (EC50 between 200 nM and 32 nM)) | B (B represents a pKi value between 9 and 10 (Ki between 1 nM and 0.1 nM)) | B (B represents a pEC50 value between 6.7 and 7.5 (EC50 between 200 nM and 32 nM)) | B (B represents a pKi value between 9 and 10 (Ki between 1 nM and 0.1 nM)) | – | – |
| Cc1cc(Nc2cc3nc(CN4CCOCC4)ccc3c(N[C@@H]3C[C@H]4CCC[C@@H](C3)N4S(C)(=O)=O)n2)n[nH]1 [Example 5-22] | – | – | – | – | A (A represents a pEC50 value≥7.5 (EC50≤32 nM)) | A (A represents a pKi value≥10 (Ki≤0.1 nM)) | B (B represents a pEC50 value between 6.7 and 7.5 (EC50 between 200 nM and 32 nM)) | A (A represents a pKi value≥10 (Ki≤0.1 nM)) | – | – |
| Cc1cc(Nc2cc3nc(CN4CCOCC4)ccc3c(N[C@@H]3C[C@H]4CCC[C@@H](C3)N4S(=O)(=O)c3cncc(F)c3)n2)n[nH]1 [Example 5-30] | – | – | – | – | A (A represents a pEC50 value≥7.5 (EC50≤32 nM)) | A (A represents a pKi value≥10 (Ki≤0.1 nM)) | A (A represents a pEC50 value≥7.5 (EC50≤32 nM)) | – | – | – |
| Cc1cnc2cc(Nc3cc(C)[nH]n3)nc(N[C@@H]3C[C@H]4CCC[C@@H](C3)N4S(=O)(=O)N3CC(C#N)C3)c2c1 [Example 6-9] | – | – | – | – | – | A (A represents a pKi value≥10 (Ki≤0.1 nM)) | – | – | A (A represents a pEC50 value≥7.5 (EC50≤32 nM)) | A (A represents a pEC50 value≥7.5 (EC50≤32 nM)) |
| COC(=O)c1cnc2cc(Nc3cc(C)[nH]n3)nc(N[C@@H]3C[C@H]4CC[C@@H](C3)N4CC(=O)OC(C)C)c2c1 [Example 6-41] | – | – | – | – | – | B (B represents a pKi value between 9 and 10 (Ki between 1 nM and 0.1 nM)) | – | – | B (B represents a pEC50 value between 6.7 and 7.5 (EC50 between 200 nM and 32 nM)) | A (A represents a pEC50 value≥7.5 (EC50≤32 nM)) |
| Cc1cc(Nc2cc3ncc(S(C)(=O)=O)cc3c(N[C@@H]3C[C@H]4CCC[C@@H](C3)N4Cc3ccncc3)n2)n[nH]1 [Example 6-60] | – | – | – | – | – | A (A represents a pKi value≥10 (Ki≤0.1 nM)) | – | A (A represents a pKi value≥10 (Ki≤0.1 nM)) | B (B represents a pEC50 value between 6.7 and 7.5 (EC50 between 200 nM and 32 nM)) | – |
